Data published in paper PMC5691054, “An unexpected protein interaction promotes drug resistance in leukemia” (Nature Communications, 2017).
“Also recorded” adds a separate entry of the source. Where no end group is shown, it is not given here. The star is where a group is joined. Biotin = O=C1N[C@H]2[C@H](CS[C@H]2CCCCC(=O)*)N1; FAM = fluorescein

Experiments:
[1] = test system: murine hematopoietic progenitor cells (HPC); experiment: Hematopoietic progenitor cell serial replating in methylcellulose; conditions: HPC transduced with MPP1; cell penetrating peptide, fresh at each replating; n = 3
[2] = test system: murine hematopoietic progenitor cells (HPC)
MO7e cells [3] = experiment: Cytarabine cytotoxicity in MO7e cells; type: cell-based, Human; conditions: in words
Method: MO7e cells were seeded at 1500 cells per well of a 96-well plate. Cells were then treated with Cytarabine at increasing concentrations ranging from 0.5 to 500 μM for 4 h in serum-free media. Cells were washed three times with PBS and replaced with fresh complete media for 68 h. Cell viability analysis was determined using CellTiter Glo. Where applicable, cells were treated with 10 nM Antimycin A. IC50 values were calculated using GraphPad Prism.

HEK293 cells = experiment: 6MP cytotoxicity / drug resistance in transfected HEK293 cells; type: cell-based, Human; conditions: HEK293 co-expressing ABCC4 and MPP1; cell penetrating peptide (20 μM in methods; various amounts), 96 h, in words
Method: HEK293 cells transfected with ABCC4 or ABCC4ΔC in the presence or absence of MPP1, MO7e, and Meg01 cells were treated with 10 concentrations of 6MP, ranging from 1 to 1000 µM, for 96 h. Cell viability analysis was determined using CellTiter Glo (Promega). Where applicable, cell penetrating peptides conjugated to the PDZ-binding motif of ABCC4 (labeled either ABCC4-PDZ or ABCC4ΔC) were added to the cells at 20 μM. Media was changed daily and new ABCC4-PDZ/ABCC4ΔC peptide and 6MP was added. IC50 values were calculated using GraphPad Prism.

[4] = biological target: T1, MPP1 and ABCC4 protein interaction (Homo sapiens, UniProt Q00013); experiment: Competition of ABCC4 C-terminal peptides with MPP1–ABCC4 complex (GST-ABCC4-C100 pull-down, immunoblot); type: biochemical
T1 construct: For full-length expression of MPP1, the pTriX vector containing an N-terminal His tag was used to create the His-S-MPP1 fusion protein; made in house; host or cells: E. coli
T1 sequence (Q00013 1-466): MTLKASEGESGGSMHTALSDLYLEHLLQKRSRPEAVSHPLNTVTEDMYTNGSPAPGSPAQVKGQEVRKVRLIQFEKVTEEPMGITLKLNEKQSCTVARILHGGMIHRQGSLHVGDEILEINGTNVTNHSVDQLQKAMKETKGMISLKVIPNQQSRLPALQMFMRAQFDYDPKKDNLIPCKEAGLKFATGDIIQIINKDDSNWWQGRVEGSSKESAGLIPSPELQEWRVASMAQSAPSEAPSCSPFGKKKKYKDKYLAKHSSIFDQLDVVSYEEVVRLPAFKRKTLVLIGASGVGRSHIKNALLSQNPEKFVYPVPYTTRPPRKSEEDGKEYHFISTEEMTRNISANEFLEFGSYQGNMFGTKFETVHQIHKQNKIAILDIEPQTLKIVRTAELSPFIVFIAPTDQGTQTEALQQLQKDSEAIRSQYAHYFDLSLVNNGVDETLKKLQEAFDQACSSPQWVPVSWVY
Method: C-terminal peptides of ABCC4 containing the carboxyl-terminal 15 amino acids ([…]-COOH, ABCC4-PDZ) or carboxyl-terminal 11 amino acids lacking the PDZ-binding motif ([…]-COOH, ABCC4ΔC) conjugated to the cell penetrating peptide TAT ([…]) were chemically synthesized by the Hartwell Center for Bionformatics and Biotechnology at SJCRH. ABCC4 peptides (1–4 μM) were mixed with purified GST-ABCC4-C100 (50 nM) (Supplementary Fig. 10 ) before addition of His-S-MPP1 (3.6 nM) and allowed to mix for 2 h at 24 °C. The GST-ABCC4-C100 was immobilized on glutathione beads, and washed 3 times. Protein complexes were eluted from the beads, separated by SDS-PAGE, and immunoblotted with rabbit anti-MPP1.

[5] = test system: ABCC4 plasma membrane localization in HEK293 cells expressing MPP1 and GFP-ABCC4; experiment: ABCC4 plasma membrane localization (confocal microscopy); type: cell-based, Human
Method: Peptides containing or lacking the ABCC4-PDZ motif were fused with the cell penetrating HIV-TAT peptide. These peptides were tested for their effect on ABCC4 plasma membrane localization. HEK293 cells were transfected with MPP1 and GFP-ABCC4 and the ER protein, calreticulin. The plasma membrane was counter-stained with wheat-germ-agglutinin (WGA) labeled with Alexa647 after treatment with either ABCC4-PDZ or ABCC4ΔC peptide.
HEK293 cells were seeded on chambered coverglass slides (LAB-TEK) 48 h before transfection with plasmid DNA (250 ng) encoding pAc-GFP-ABCC4 or ABCC4ΔC and pCal plasmid encoding the ER resident protein calreticulin conjugated to RFP (Origene). Transfection was performed using Lipofectamine 2000 as per the manufacturer’s instructions. Immediately prior to visualizing cells, cells were counterstained with the plasma membrane marker wheat-germ agglutinin (WGA) conjugated to Alexa-647 (Invitrogen). All confocal microscopy images were acquired on a 3i Marianas system configured with an Yokagowa CSU-X spinning disk confocal microscope utilizing a ×63 Zeiss objective, using the 488 (GFP), 561 (RFP), and 660 (far red) laser lines.

MO7e cells [6] = experiment: 6MP cytotoxicity in MO7e cells and CRISPR knock-outs; type: cell-based, Human
[7] = biological target: T2, His-S-MPP1 fusion protein (full-length MPP1) (UniProt Q00013 1-466); experiment: fluorescence polarisation; 100 nM FAM-ABCC4 incubated with various concentrations of full-length MPP1; estimated constant; conditions: both partners purified
T2 construct: MPP1 (p55), full length, expressed from the pTriX vector; the fragments of the same protein are numbered up to amino acid 466; also called purified MPP1; source: E. coli, purified (nickel column); not shown: His tag, N-terminal, kept
T2 sequence (looked up): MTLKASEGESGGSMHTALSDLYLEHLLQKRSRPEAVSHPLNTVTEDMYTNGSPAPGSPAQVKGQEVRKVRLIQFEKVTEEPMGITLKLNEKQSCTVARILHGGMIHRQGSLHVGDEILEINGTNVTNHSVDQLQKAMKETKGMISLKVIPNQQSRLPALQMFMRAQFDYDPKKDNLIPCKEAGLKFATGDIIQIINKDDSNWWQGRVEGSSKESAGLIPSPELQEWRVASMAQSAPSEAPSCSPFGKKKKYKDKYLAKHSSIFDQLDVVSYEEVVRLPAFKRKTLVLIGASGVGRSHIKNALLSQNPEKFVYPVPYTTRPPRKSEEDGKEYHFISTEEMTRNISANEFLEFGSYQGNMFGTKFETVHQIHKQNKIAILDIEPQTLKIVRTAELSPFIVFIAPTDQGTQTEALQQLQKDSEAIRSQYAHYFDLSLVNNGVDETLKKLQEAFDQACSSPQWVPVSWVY

[8] = biological target: T2, His-S-MPP1 fusion protein (full-length …); experiment: pull-down; competition: TAT-ABCC4 peptides (1–4 μM) mixed with GST-ABCC4-C100 (50 nM) before addition of His-S-MPP1 (3.6 nM), 2 h at 24 °C; GST-ABCC4-C100 immobilized on glutathione beads, washed 3 times; immunoblot with rabbit anti-MPP1; conditions: both partners purified
[9] = biological target: T2, His-S-MPP1 fusion protein (full-length …); experiment: FRET or BRET; TR-FRET: various concentrations of B-ABCC4 with 5 nM Tb-anti-His, 50 nM AF488-streptavidin and 5 nM His-S-MPP1 in DPBS, 0.01% BSA, 1 mM DTT, 0.5% DMSO; one site total binding fit; conditions: both partners purified
[10] = biological target: T3, MPP1, endogenous in MO7e cells (human (endogenous in MO7e), UniProt Q00013 1-466); experiment: cell-based or functional assay
T3 sequence (looked up): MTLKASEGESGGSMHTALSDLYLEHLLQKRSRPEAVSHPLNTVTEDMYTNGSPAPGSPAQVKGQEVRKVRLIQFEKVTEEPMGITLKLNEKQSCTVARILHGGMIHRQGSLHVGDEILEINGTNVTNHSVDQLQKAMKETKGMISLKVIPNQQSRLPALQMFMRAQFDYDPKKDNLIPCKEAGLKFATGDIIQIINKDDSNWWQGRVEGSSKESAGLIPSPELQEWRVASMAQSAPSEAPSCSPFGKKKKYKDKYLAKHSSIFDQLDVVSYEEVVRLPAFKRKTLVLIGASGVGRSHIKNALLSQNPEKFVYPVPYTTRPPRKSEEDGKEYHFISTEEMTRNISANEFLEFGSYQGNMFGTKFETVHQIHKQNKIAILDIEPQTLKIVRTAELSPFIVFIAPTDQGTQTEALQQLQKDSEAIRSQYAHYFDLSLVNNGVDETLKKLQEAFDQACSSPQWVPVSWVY

SNGQPSTLTIFETAL-OH [ABCC4-PDZ, carboxyl-terminal 15 amino acids of ABCC4 conjugated to the cell penetrating peptide TAT]
effect on MPP1-driven methylcellulose replating [1]: suppressed methylcellulose replating
toxicity to normal hematopoietic progenitors [2]: not toxic to normal
effect of peptide on cytarabine sensitivity (MO7e cells [3]; MO7e lacking ABCC4): no additional sensitivity to cytarabine
effect of peptide on cytarabine sensitivity (MO7e cells [3]; MO7e, cytarabine 0.5–500 μM 4 h, then 68 h): sensitized to cytarabine cytotoxicity; also recorded: specifically sensitized MO7e cells to cytarabine
effect of co-treatment on IC50 for cytarabine (MO7e cells [3]; peer review file): reduce the IC50 for cytarabine
effect of peptide on 6MP IC50 (HEK293 cells): dose-dependently suppressed the IC50 of 6MP with the highest dose almost completely reversing the salutary effect of MPP1
disruption of the MPP1 and ABCC4 protein interaction ([4]; in words, in vitro competition experiment): potently disrupted complex formation
greater affinity of MPP1 for ABCC4 vs. glycophorin c ([4]; suggested by the IC50 of ~300 nM): 15 fold
transfected cells exhibiting loss of ABCC4 at the plasma membrane ([5]; cell penetrating peptide (TAT fused; 10 μM in Supplementary Fig. 4), n = 20 fields of view): over 90%
effect on ABCC4 plasma membrane localization ([5]; in words, confocal microscopy): reduced the ABCC4 plasma membrane localization
effect of peptide on 6MP sensitivity (MO7e cells [6]; cell permeable peptide (10 μM), in words): sensitizes MO7e cells to 6MP
reduction of 6MP IC50 by peptide (MO7e cells [6]; cell permeable peptide (10 μM, Supplementary Fig. 5c)): 2.6 fold

B1: Fluorescein-conjugated C-terminal peptide of ABCC4 (FAM-TIFETAL-COOH) (peptide)
peptide: {FAM}-TIFETAL-OH
notes: ABCC4, human, C-terminal 7 amino acids with the PDZ motif ETAL; also called FAM-ABCC4; fluorescein-labeled ABCC4-PDZ motif peptide; source: synthetic peptide
Kd [7]: ~600 nM

B2: ABCC4-PDZ peptide (carboxyl-terminal 15 amino acids of ABCC4) conjugated to the cell penetrating peptide TAT (peptide)
peptide: YGRKKRRQRRRSNGQPSTLTIFETAL
notes: cell penetrating HIV-TAT peptide; ABCC4, human, carboxyl-terminal 15 amino acids with the PDZ motif ETAL, free COOH; also called cell penetrating ABCC4-PDZ peptide; source: synthetic peptide
IC50 [8]: ~300 nM

B3: Biotinylated C-terminal ABCC4 peptide (biotin-[residues removed]-COOH) (peptide)
peptide: Biotin-GHTDHMVTNTSNGQPSTLTIFETAL-OH
modifications: not fully specified; printed as biotin-GHTDHMVTNTSNGQPSTLTIFETAL-COOH
notes: ABCC4, human, C-terminal 25 amino acids with the PDZ motif ETAL; Detected through Alexa Fluor 488 streptavidin in the TR-FRET assay; also called B-ABCC4; ABCC4-PDZ peptide; source: synthetic peptide
Kd [9]: ~511 nM

B4: ABCC4, endogenous in MO7e cells (natural protein, human (endogenous in MO7e), UniProt O15439 1-1325, looked up)
chain: MLPVYQEVKPNPLQDANLCSRVFFWWLNPLFKIGHKRRLEEDDMYSVLPEDRSQHLGEELQGFWDKEVLRAENDAQKPSLTRAIIKCYWKSYLVLGIFTLIEESAKVIQPIFLGKIINYFENYDPMDSVALNTAYAYATVLTFCTLILAILHHLYFYHVQCAGMRLRVAMCHMIYRKALRLSNMAMGKTTTGQIVNLLSNDVNKFDQVTVFLHFLWAGPLQAIAVTALLWMEIGISCLAGMAVLIILLPLQSCFGKLFSSLRSKTATFTDARIRTMNEVITGIRIIKMYAWEKSFSNLITNLRKKEISKILRSSCLRGMNLASFFSASKIIVFVTFTTYVLLGSVITASRVFVAVTLYGAVRLTVTLFFPSAIERVSEAIVSIRRIQTFLLLDEISQRNRQLPSDGKKMVHVQDFTAFWDKASETPTLQGLSFTVRPGELLAVVGPVGAGKSSLLSAVLGELAPSHGLVSVHGRIAYVSQQPWVFSGTLRSNILFGKKYEKERYEKVIKACALKKDLQLLEDGDLTVIGDRGTTLSGGQKARVNLARAVYQDADIYLLDDPLSAVDAEVSRHLFELCICQILHEKITILVTHQLQYLKAASQILILKDGKMVQKGTYTEFLKSGIDFGSLLKKDNEESEQPPVPGTPTLRNRTFSESSVWSQQSSRPSLKDGALESQDTENVPVTLSEENRSEGKVGFQAYKNYFRAGAHWIVFIFLILLNTAAQVAYVLQDWWLSYWANKQSMLNVTVNGGGNVTEKLDLNWYLGIYSGLTVATVLFGIARSLLVFYVLVNSSQTLHNKMFESILKAPVLFFDRNPIGRILNRFSKDIGHLDDLLPLTFLDFIQTLLQVVGVVSVAVAVIPWIAIPLVPLGIIFIFLRRYFLETSRDVKRLESTTRSPVFSHLSSSLQGLWTIRAYKAEERCQELFDAHQDLHSEAWFLFLTTSRWFAVRLDAICAMFVIIVAFGSLILAKTLDAGQVGLALSYALTLMGMFQWCVRQSAEVENMMISVERVIEYTDLEKEAPWEYQKRPPPAWPHEGVIIFDNVNFMYSPGGPLVLKHLTALIKSQEKVGIVGRTGAGKSSLISALFRLSEPEGKIWIDKILTTEIGLHDLRKKMSIIPQEPVLFTGTMRKNLDPFNEHTDEELWNALQEVQLKETIEDLPGKMDTELAESGSNFSVGQRQLVCLARAILRKNQILIIDEATANVDPRTDELIQKKIREKFAHCTVLTIAHRLNTIIDSDKIMVLDSGRLKEYDEPYVLLQNKESLFYKMVQQLGKAEAAALTETAKQVYFKRNYPHIGHTDHMVTNTSNGQPSTLTIFETAL
IC50 of 6MP in MO7e cells with the C-terminal ABCC4 peptide [10]: 2.6 fold
